Laboratory results reported in patent EP3436024B1, “3-BETA-METHOXY-PREG FOR USE IN THE TREATMENT OF TREATMENT RESISTANT DEPRESSION” (Mapreg, priority 2016, dated 2017).

Target: T1, human progesterone receptor(PR) (Homo sapiens, UniProt P06401)
T1 construct: expressed in transfected cells; host or cells: HEK293T
T1 sequence (P06401 1-933): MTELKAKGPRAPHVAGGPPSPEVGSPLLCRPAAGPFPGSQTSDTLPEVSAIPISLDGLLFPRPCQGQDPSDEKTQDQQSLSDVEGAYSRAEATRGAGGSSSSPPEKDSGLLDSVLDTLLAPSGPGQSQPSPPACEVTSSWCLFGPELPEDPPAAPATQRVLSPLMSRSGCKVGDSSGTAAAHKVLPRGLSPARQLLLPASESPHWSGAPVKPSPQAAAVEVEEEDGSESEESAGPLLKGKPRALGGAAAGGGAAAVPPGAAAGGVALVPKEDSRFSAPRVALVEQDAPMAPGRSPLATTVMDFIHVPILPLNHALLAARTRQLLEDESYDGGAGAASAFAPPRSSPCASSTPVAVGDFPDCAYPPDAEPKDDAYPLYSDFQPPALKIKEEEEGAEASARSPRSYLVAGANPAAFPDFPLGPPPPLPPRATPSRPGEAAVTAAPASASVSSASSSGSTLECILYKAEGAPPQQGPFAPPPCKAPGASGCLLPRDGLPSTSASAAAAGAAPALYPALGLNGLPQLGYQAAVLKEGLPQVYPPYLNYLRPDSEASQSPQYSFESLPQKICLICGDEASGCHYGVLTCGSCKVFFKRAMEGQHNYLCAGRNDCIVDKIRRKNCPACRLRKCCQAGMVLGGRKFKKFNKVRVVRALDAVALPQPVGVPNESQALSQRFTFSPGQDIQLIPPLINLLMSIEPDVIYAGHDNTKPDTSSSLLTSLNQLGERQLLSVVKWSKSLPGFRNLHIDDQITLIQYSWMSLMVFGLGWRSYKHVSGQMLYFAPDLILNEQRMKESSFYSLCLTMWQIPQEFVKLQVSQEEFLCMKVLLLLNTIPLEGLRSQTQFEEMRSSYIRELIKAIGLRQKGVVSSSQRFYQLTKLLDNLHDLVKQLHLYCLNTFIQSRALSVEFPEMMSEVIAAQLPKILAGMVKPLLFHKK
Assay: Test of progesterone receptor agonist activity (MMTV-luciferase transactivation in transfected HEK293T cells)
Assay type: cell-based
Details: 24 hours, increasing amounts, Figure 1
Method: The main experimental setting used is the following: HEK293T cells were transiently transfected, using calcium phosphate precipitation technology, with expression vectors pSG5hPR (which permits expression of human progesterone receptor(PR)), pFC31-luc (contains the luciferase gene under the control of the MMTV promoter, which is in turn activated by binding of a progestin to progesterone receptor) and pcbetagal (which permits expression of betagalactosidase), and cultured during 24 hours with increasing amounts of various compositions: • 1. […] Test of progesterone receptor […] activity: transfected cells were cultured with progesterone (1 nM) and increasing amounts of RU486 (a well-known progesterone receptor antagonist) or 3-methoxy-pregnenolone. With this setting, a compound with progesterone receptor antagonist activity competes with progesterone for the occupation of progesterone receptor and results in a progressive loss of transactivation activity when the amount of this compound is increased compared to progesterone.

Structure (SMILES) | progesterone receptor agonist activity (transactivation activity leading to the expression of luciferase)
CC(=O)[C@H]1CC[C@H]2[C@@H]3CCC4=CC(=O)CC[C@]4(C)[C@H]3CC[C@]12C [progesterone, reference compound] | permits a transactivation activity

Tested on: Wistar Kyoto (WKY) rats
Assay: Locomotor activity in the open-field arena, WKY rats
Assay type: in vivo, rat
Details: acute, MAP4343 10 mg/kg s.c., fluoxetine 10 mg/kg i.p., ketamine 30 mg/kg i.p., 3 min, Fig. 5A
Method: (§1) After a 6-day period of acclimatization, all experimental groups received daily successive subcutaneous (250 µl per rat) and intraperitoneal (1 ml/kg) injections. WI rats received injection of vehicle (sesame oil + saline) while WKY rats were randomly assigned to […], as follow: KWY rats receiving only vehicle (sesame oil + saline) and WKY rats treated with MAP4343 (10 mg/kg, s.c.; rats received in parallel i.p. injections of saline), fluoxetine (10 mg/kg i.p., rats received in parallel s.c. injections of sesame oil) or ketamine (30 mg/kg, i.p.; rats received in parallel s.c. injections of sesame oil) (see Figure 3).
(§2) After, a 6-day period of acclimatization, the acute phase of treatment started for 4 days during behavioral tests were performed (Figure 3). All animals were injected 1h30 before the starting of behavioral test.
(§3) The animals were individually placed in the open field arena (OFA) (70 x 100 x 70 cm), with a central square (35 x 50 cm), located in a 50 lux illuminated room and videotaped during 3 min using a computerized system (VideoTrack V2.5, ViewPoint, Lyon, France).
(§4) OFA allows firstly the evaluation of total locomotor activity (LMA) thereby measuring the total distance travelled in the arena (in cm). Secondly, measurements of the activity in the center of the arena like (i) the number of entries in the center of arena and (ii) the total time spent in the center of arena (in sec) provide cues of anxiety-like behavior (Prut and Belzung, 2003). All these behavioral parameters were instantaneously measured automatically with the VideoTrack V2.5 software from the videos.

Structure (SMILES) | locomotor activity (total distance travelled in the open-field arena), change as compared to WKY receiving vehicle
CNC1(c2ccccc2Cl)CCCCC1=O (stereo not drawn) [ketamine] | no significant change

Same assay, conditions: acute, fluoxetine 10 mg/kg i.p., ketamine 30 mg/kg i.p., 3 min, Fig. 5A

Structure (SMILES) | locomotor activity (total distance travelled in the open-field arena), change as compared to MAP4343-treated WKY
CNC1(c2ccccc2Cl)CCCCC1=O (stereo not drawn) [ketamine] | no significant change

Tested on: Wistar Kyoto (WKY) rats
Assay: Anxious-like behavior: activity in the central square of the open-field arena, WKY rats
Assay type: in vivo, rat
Details: acute, MAP4343 10 mg/kg s.c., fluoxetine 10 mg/kg i.p., ketamine 30 mg/kg i.p., Fig. 5B
Method: as §1, §2, §3, §4

Structure (SMILES) | number of entries in the central square of OFA, change as compared to WKY receiving only vehicle
CNC1(c2ccccc2Cl)CCCCC1=O (stereo not drawn) [ketamine] | failed to significantly modify

Same assay, conditions: acute, MAP4343 10 mg/kg s.c., fluoxetine 10 mg/kg i.p., ketamine 30 mg/kg i.p., Fig. 5C

Structure (SMILES) | time spent in the center of open-field, change as compared to WKY receiving vehicle
CNC1(c2ccccc2Cl)CCCCC1=O (stereo not drawn) [ketamine] | did not induce any significant change

Tested on: Wistar Kyoto (WKY) rats
Assay: Elevated-plus maze (EPM), WKY rats
Assay type: in vivo, rat
Details: acute, MAP4343 10 mg/kg s.c., fluoxetine 10 mg/kg, ketamine 30 mg/kg i.p., Fig. 5D
Method: as §1, §2
We used the elevated-plus maze (EPM) as an assay of anxiety-related behavior in rodents (Walf and Frye, 2007). Rats were initially placed in the center of the plus-maze, consisting of two open arms (50 x 10 cm) and two closed arms (50 x 10 cm enclosed by 40 cm walls), in a 50 lux illuminated room and videotaped during 5 min using a computerized system (VideoTrack V2.5, ViewPoint, Lyon, France). The time spent in the open versus closed arms was blindly measured by two independent experimenters from the recorded video, and the open arm-index was calculated as follow: time in the open arms (sec) / [time in open arms (sec) + time in closed arms (sec)].

Structure (SMILES) | open-arm (OA) index, change when compared to WKY receiving vehicle alone
CNC1(c2ccccc2Cl)CCCCC1=O (stereo not drawn) [ketamine] | -29%

Tested on: microtubule-associated protein2 (MAP2)
Assay: Binding (affinity) by displacement of PREG-3H
Details: index of binding

Structure (SMILES) | Affinity
CC(=O)O[C@H](C)[C@H]1CC[C@H]2[C@@H]3CC=C4C[C@@H](O)CC[C@]4(C)[C@H]3CC[C@]12C [Pregna-5-ene-3β,20β-diol-20-acetate] | 60% of PREG
CC(=O)[C@H]1CC[C@H]2[C@@H]3CC=C4C[C@@H](O)CC[C@]4(C)[C@H]3CC[C@]12C [Pregnenolone (PREG), 3β-hydroxypregn-5α-en-20α-one, reference compound] | 100% of PREG
CO[C@H]1CC[C@@]2(C)[C@@H](CC[C@@H]3[C@@H]2CC[C@]2(C)[C@@H]([C@@H](C)O)CC[C@@H]32)C1 [3β-methoxy-5a-pregnane-20β-ol] | 65% of PREG
CC(=O)[C@@]12O[C@@H]1C[C@H]1[C@@H]3CC=C4C[C@@H](O)CC[C@]4(C)[C@H]3CC[C@@]12C [PREG-16a,17a-epoxy] | 41% of PREG

Target: purified tubulin and MAP2 (Homo sapiens, UniProt P11137)
Assay: Microtubule polymerization activity (optical density at 345 nm)
Assay type: biochemical
Details: increase in optical density at 345 nm, 37 °C, in the presence of GTP
Method: Activity is measured by the increase in optical density at 345 nm of a mixture of purified tubulin and MAP2, incubated at 37 °C in the presence of GTP.

purified tubulin and MAP2, sequence (P11137 whole entry): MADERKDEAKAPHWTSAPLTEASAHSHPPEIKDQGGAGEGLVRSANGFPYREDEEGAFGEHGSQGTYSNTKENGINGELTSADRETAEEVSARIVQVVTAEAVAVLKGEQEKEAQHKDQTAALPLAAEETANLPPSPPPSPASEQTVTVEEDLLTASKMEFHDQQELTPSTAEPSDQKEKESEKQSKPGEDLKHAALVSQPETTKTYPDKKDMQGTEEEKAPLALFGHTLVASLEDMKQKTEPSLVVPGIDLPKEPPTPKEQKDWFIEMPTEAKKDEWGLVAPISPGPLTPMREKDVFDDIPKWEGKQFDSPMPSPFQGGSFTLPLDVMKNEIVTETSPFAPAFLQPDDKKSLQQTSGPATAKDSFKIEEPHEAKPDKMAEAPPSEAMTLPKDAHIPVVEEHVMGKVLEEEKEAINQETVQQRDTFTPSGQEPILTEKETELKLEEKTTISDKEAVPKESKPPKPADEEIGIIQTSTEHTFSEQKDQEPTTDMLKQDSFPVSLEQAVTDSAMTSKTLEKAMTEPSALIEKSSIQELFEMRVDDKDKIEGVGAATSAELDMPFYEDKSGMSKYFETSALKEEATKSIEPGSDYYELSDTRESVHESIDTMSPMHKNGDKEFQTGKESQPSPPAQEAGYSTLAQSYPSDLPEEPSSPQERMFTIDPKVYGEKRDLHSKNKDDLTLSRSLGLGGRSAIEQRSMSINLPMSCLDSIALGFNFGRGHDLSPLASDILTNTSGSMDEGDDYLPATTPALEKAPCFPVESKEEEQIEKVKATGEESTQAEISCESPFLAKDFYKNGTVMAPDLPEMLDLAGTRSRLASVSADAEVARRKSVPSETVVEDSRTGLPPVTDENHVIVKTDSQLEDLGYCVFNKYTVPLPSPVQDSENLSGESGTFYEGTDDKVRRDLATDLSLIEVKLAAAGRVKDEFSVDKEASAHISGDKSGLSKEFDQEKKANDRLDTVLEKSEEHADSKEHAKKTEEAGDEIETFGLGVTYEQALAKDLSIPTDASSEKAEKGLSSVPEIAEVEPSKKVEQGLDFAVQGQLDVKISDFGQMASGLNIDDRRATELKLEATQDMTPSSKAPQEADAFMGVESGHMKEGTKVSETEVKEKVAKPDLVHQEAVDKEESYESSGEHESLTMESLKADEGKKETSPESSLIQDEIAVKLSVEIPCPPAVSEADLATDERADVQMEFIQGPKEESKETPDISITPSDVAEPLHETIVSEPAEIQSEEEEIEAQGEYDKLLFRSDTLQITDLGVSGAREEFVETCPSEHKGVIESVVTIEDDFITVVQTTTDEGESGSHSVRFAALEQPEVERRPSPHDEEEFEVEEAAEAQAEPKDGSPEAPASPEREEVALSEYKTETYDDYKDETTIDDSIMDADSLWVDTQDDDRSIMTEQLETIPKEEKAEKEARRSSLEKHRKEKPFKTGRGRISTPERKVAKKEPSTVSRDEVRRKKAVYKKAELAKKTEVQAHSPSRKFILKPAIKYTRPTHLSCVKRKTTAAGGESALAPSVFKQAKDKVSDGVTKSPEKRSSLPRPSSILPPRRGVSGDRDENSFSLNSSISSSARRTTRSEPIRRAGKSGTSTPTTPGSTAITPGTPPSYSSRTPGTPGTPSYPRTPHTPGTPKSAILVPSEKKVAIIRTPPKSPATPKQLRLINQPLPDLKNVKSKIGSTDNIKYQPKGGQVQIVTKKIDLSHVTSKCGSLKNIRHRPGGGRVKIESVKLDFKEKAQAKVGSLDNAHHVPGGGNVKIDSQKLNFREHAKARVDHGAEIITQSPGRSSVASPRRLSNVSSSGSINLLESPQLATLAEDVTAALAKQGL

Structure (SMILES) | Activity
CC(=O)O[C@H](C)[C@H]1CC[C@H]2[C@@H]3CC=C4C[C@@H](O)CC[C@]4(C)[C@H]3CC[C@]12C [Pregna-5-ene-3β,20β-diol-20-acetate] | 108% of PREG
CC(=O)[C@H]1CC[C@H]2[C@@H]3CC=C4C[C@@H](O)CC[C@]4(C)[C@H]3CC[C@]12C [Pregnenolone (PREG), 3β-hydroxypregn-5α-en-20α-one, reference compound] | 100% of PREG
CO[C@H]1CC[C@@]2(C)[C@@H](CC[C@@H]3[C@@H]2CC[C@]2(C)[C@@H]([C@@H](C)O)CC[C@@H]32)C1 [3β-methoxy-5a-pregnane-20β-ol] | 65% of PREG
CC(=O)[C@@]12O[C@@H]1C[C@H]1[C@@H]3CC=C4C[C@@H](O)CC[C@]4(C)[C@H]3CC[C@@]12C [PREG-16a,17a-epoxy] | 54% of PREG

Tested on: PC12 cells
Assay: Stimulation of neuritic sprouting
Assay type: cell-based
Details: PC12 cells differentiated with NGF (10 ng/ml), steroid 30 µM, 3 days; relative to PREG
Method: Stimulation of neuritic sprouting is conducted on PC12 cells differentiated in the presence of NGF (10 ng/ml) and the steroid being tested (30 µM) for 3 days. For each condition, the average length of the longest 200 neurites […] is measured simultaneously for 3 cultures.

Structure (SMILES) | Neuritic sprouting
CC(=O)O[C@H](C)[C@H]1CC[C@H]2[C@@H]3CC=C4C[C@@H](O)CC[C@]4(C)[C@H]3CC[C@]12C [Pregna-5-ene-3β,20β-diol-20-acetate] | ++ (equal to)
CC(=O)[C@H]1CC[C@H]2[C@@H]3CC=C4C[C@@H](O)CC[C@]4(C)[C@H]3CC[C@]12C [Pregnenolone (PREG), 3β-hydroxypregn-5α-en-20α-one, reference compound] | ++ (equal to)
CO[C@H]1CC[C@@]2(C)[C@@H](CC[C@@H]3[C@@H]2CC[C@]2(C)[C@@H]([C@@H](C)O)CC[C@@H]32)C1 [3β-methoxy-5a-pregnane-20β-ol] | ++ (equal to)
CC(=O)[C@@]12O[C@@H]1C[C@H]1[C@@H]3CC=C4C[C@@H](O)CC[C@]4(C)[C@H]3CC[C@@]12C [PREG-16a,17a-epoxy] | + (stimulation is lower than)
